Target: T1, D. discoideum class I RNR (NrdA + NrdB) (Dictyostelium discoideum, UniProt Q54Q71)
T1 sequence (Q54Q71 1-870): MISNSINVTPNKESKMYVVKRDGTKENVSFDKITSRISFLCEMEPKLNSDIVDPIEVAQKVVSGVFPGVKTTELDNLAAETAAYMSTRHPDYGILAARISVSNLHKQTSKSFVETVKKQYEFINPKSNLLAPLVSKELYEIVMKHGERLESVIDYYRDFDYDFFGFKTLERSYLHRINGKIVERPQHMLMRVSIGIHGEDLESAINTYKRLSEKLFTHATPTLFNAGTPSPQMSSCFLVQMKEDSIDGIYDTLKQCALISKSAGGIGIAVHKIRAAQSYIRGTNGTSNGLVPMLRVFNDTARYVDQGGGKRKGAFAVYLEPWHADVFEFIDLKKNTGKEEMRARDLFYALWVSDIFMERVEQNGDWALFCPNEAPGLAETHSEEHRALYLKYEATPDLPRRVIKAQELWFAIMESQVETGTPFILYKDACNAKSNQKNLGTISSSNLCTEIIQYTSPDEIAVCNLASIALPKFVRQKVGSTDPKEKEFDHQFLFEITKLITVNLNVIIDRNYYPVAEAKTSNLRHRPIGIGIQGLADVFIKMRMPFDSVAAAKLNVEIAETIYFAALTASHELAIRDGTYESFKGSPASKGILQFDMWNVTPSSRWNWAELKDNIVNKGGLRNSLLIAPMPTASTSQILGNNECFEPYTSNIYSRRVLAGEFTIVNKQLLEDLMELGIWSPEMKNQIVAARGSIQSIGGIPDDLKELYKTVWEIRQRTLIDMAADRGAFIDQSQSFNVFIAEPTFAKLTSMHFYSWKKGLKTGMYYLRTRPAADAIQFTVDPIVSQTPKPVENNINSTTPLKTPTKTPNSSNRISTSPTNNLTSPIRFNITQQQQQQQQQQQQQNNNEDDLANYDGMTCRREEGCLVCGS
T1 sequence (P42521 1-338 partner): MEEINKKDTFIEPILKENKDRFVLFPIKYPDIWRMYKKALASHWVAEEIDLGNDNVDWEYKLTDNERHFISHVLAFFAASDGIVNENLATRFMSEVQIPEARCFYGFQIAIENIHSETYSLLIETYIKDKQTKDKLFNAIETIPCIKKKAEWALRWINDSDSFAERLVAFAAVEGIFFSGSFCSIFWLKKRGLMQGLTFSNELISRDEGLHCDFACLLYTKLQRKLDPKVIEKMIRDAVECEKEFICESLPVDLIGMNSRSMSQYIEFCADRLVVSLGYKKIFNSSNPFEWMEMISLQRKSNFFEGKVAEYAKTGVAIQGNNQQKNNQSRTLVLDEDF
Experiment: radiolabelled GDP reduction assay
Type: biochemical
Conditions: dTTP as effector; 0.7 mM [14C]GDP; labelled compound; pH 7.5, 25 °C

Compound: Nc1nc2c(ncn2[C@@H]2O[C@H](COP(=O)(O)OP(=O)(O)O)[C@@H](O)[C@H]2O)c(=O)[nH]1 [GDP]
- radiolabelled GDP reduction assay: characterized in vitro with CDP or GDP as substrate

From paper PMC3605638 (The Journal of Biological Chemistry, 2013)
